Test results: US20110076339A1, “Colon Cleansing Method and Kit” (Kingston General Hospital, priority 2008, published 2011)

Experiment: Patient diary of bowel movements after laxative use
Type: in vivo, human
Source text: In patient tolerance studies described herein, treatment groups received an osmotic purgative on the evening before colonoscopy in split doses. Comparisons were made between the results of these osmotic purgatives. Also, a comparison was made between patients treated with osmotic purgative alone, and patients treated initially with stimulant laxative followed by osmotic purgative. Table III provides a summary of data gathered from diaries that were kept by 100 patients as they progressed through a colon cleansing regimen. Each patient recorded the time of the first and last bowel movement following consumption of a laxative, as well as the total number of bowel movements associated with consumption of a particular laxative.

[1] = 10 mg taken 2 nights before colonoscopy (e.g. at suppertime)
[2] = 10 mg taken 3 nights before colonoscopy (e.g. at suppertime)

SMILES: CC(=O)Oc1ccc(C(c2ccc(OC(C)=O)cc2)c2ccccn2)cc1 [Bisacodyl, bisacodyl]
- Mean time to first BM ± standard deviation [1]: 8.6 ± 5.3 h
- Mean time to last BM ± standard deviation [1]: 16.5 ± 5.3 h
- Total number BM ± standard deviation [1]: 3.8 ± 2
- Mean time to first BM ± standard deviation [2]: 8.9 ± 5.1 h
- Mean time to last BM ± standard deviation [2]: 16.5 ± 5.1 h
- Total number BM ± standard deviation [2]: 3.4 ± 2
